Measurements as given in US20240423988A1, “Improvement of Tumor Immunogenicity by Means of Splicing-Controlling Compound” (Kyoto University, priority 2021, published 2024).

B1: IFN-γ: interferon-γ, major inducer of MHC class I components (protein, UniProt P01579 24-161, looked up)
Interferon gamma: QDPYVKEAENLKKYFNAGHSDVADNGTLFLGILKNWKEESDRKIMQSQIVSFYFKLFKNFKDDQSIQKSVETIKEDMNVKFFNSNKKKRDDFEKLTNYSVTDLNVQRKAIHELIQVMAELSPAAKTGKRKRSQMLFRG

What was measured:
[1] = system: tumor cells; conditions: cited from earlier work
[2] = system: CD8^+ T cells; assay: IFN-γ ELISpot assay; type: cell-based; conditions: splenocytes of vaccinated mice co-cultured with peptide-pulsed BMDCs
Procedure: The 22 splice-neoantigen candidates and a melanoma antigen peptide, tyrosinase-related protein 2 (TRP2) 180-188, serving as a positive control, were synthesized. […] mice were vaccinated twice with the synthesized peptides in the presence of Poly(I:C) as an adjuvant. Then, splenocytes were prepared from the vaccinated mice and co-cultured with peptide-pulsed bone marrow-derived dendritic cells (BMDCs) for 24 hours, and the activation of CD8^+ T cells was evaluated using an IFN-γ ELISpot assay (FIG. 5-1A).
Eight-week-old female C57BL/6N mice were subcutaneously injected with 100 μg of synthesized peptides (Genscript Japan) and 50 μg of poly(I:C) formulated in PBS (5 peptides/mouse) on days 0 and 7. H2-K^b TRP-2180-188 peptide (MBL International, Woburn, MA) was used as a positive control. Mice were sacrificed 12 days after the initial injection, and splenocytes were isolated. As stimulators, bone marrow-derived dendritic cells (BMDCs) were generated as described previously, with some modifications. Briefly, bone marrow cells were isolated from femurs of the 8-week-old female C57BL/6N mice through centrifugation on day 2. Cells were passed through a 70-um cell strainer and seeded in 10-cm petri dishes with RPMI1640 containing 10% FBS, 100 U/mL P/S, 2 mM L-glutamine, 50 μM 2-ME, and 20 ng/ml Gm-csf (Peprotech, Rocky Hill, NJ). Culture was maintained by replacing half of the medium every 2 or 3 days. On day 12, most of the nonadherent cells had acquired typical dendritic morphology, and these cells were pulsed with peptides (2 μg/ml) for 2 hours at 37° C. ELISpot assay was performed using a Mouse IFN-γ ELISpot BASIC kit (Mabtech AB, Nacka Strand, Sweden) as per the manufacturer's instructions. Freshly isolated splenocytes (5× 10^5 cells) were co-incubated with peptide-pulsed BMDCs (4×10^4 cells) overnight at 37° C. under 5% CO2 conditions in an ELISpot PVDF white plate coated with anti-IFN-γ antibody (clone AN18). Then, IFN-γ secretion was detected using a […] (clone R^4-6A2) and a BCIP/NBT-plus substrate. After leaving the plate to dry, the spot number was counted using a dissection microscope. Spot images were acquired using an ImmunoSpot S6 Ultimate Analyzer (Cellular Technology Limited, Cleveland, OH).

[3] = system: MC38 cells; assay: Co-culture assay for tumor-killing activity, peptide-pulsed target cells; type: cell-based, murine; conditions: for tumor-killing responses, individual epitopes: MC38 pulsed with individual peptide, hexavalent peptide-reactive effector cells
Excerpt: [FIG. 6-1] FIG. 6. Hexavalent vaccination of inducible splice-neoepitopes promotes Compound 1-induced cancer immune responses. A: A schema for the cancer-killing assay. B and C: Representative flow cytometric images showing tumor-killing activity mediated by antigen-elicited effector cells (B) and their quantitative data of annexin V^+/CFSE^+ frequency (C) are indicated (n=3/group). Hexavalent (Kifc1^−, Nf1^−, Acbd4^−, Rfx7^−, Qpct1^−, and Nup153-derived) peptides or an irrelevant Trp2180-188 peptide was used to elicit antigen-reactive effector cells. CFSE-labeled MC38 cells were stimulated with either 0.1% DMSO or hexavalent peptides for 2 hours and then co-cultured with effector cells for 24 hours. Annexin V was used for monitoring early and late apoptotic cell frequencies. *** represents p<0.001. D: For the nontargeting control (NC) or B2M KO clone (n=3/group), annexin V^+/CFSE^+ frequencies in the same experimental condition as (C) are shown. ** represents p<0.01.
[FIG. 7] A: In vitro tumor-killing activity mediated by individual splice-neoantigens. Quantitative data of annexin V^+/CFSE^+ frequencies are shown (n=3/group). CFSE-labeled MC38 cells, with or without IFN-pretreatment, were further stimulated with either 0.1% DMSO, hexavalent peptides, or individual peptides for 2 hours, and then co-cultured with hexavalent peptide-reactive effector cells for 24 hours. Data are shown as the mean±SEM. Experiments were performed at least twice. B: Tumor suppressive effect by hexavalent or individual splice-neoantigen vaccination. Tumor volumes of mice on day 23 are shown. Mice were subcutaneously vaccinated with 100 μg of peptide and 50 μg of Poly(I:C) on days 11 and 18. In groups indicated by (−), 5% DMSO was injected instead of peptide. Compound 1 ([…]) or vehicle control (0.1% DMSO) was intratumorally given once daily. Data are shown as the mean±SEM (n=7/group). Experiments were performed once.
Splenocytes were prepared from mice vaccinated with either hexavalent splice-neoantigens or an irrelevant Tpr2180-188 antigen, and then further stimulated with BMDCs pulsed with the same antigen(s) in the presence of IL-2. Tumor-killing activity was quantified based on the frequency of Annexin V^+/CFSE^+24 hours after co-culture with antigen(s)-elicited effector cells and CFSE-prelabeled target cells. […] As a result, this tumor-killing activity was absent for the B2m KO MC38 cells (FIG. 6-1D).
Splenocytes were prepared from peptide(s)-vaccinated mice inoculated with Poly(I:C) on day 14, as described in the section of “ELISpot assay”. To further elicit antigen-specific CD8^+ T cells, freshly isolated splenocytes were co-cultured with peptide(s)-pulsed bone marrow-derived dendritic cells (BMDCs) in the presence of 10 ng/ml IL-2 (Peprotech) for another 7 days. Culture was maintained by replacing half of the medium every 2 or 3 days. Splenocytes stimulated with BMDCs, as effector cells, were then co-cultured with target cells at an effector target ratio of 5:1 for 24 hours to examine their lytic activity. For the preparation of target cells, in the previous day of co-culture with effector cells, cells were labeled with […] carboxyfluorescein diacetate succinimidyl ester (CFSE; Dojindo) for 10 minutes, and incubated with FBS for additional 10 minutes to stop the labeling reaction. After washing with medium twice, cells were cultured overnight in the presence of 10 ng/ml IFN-γ. The next day, target cells were pulsed with 10 ng/ml peptide(s) for 2 hours prior to co-culture or treated with Compound 1 in the presence of effector cells. After 24 hours of co-culture, cells were stained with annexin V (Biolegend) in an annexin V binding buffer for 15 minutes and subjected to flow cytometry analysis. Effector cell-mediated killing activity was calculated from the frequencies of annexin V^+/CFSEt.

[4] = system: splenocytes (CD8^+ and CD4^+ T cells); assay: Ex vivo splenocyte culture assay (antigen-independent T cell activation); type: cell-based, mice; conditions: 24 hours, flow cytometry
[5] = system: various murine cancer cell lines (LLC, Pan02, WEHI3, CT26, EG7, B16, MC38); assay: RNA-seq analysis of splice-neoantigen producing events in various murine cancer cell lines; type: cell-based
Procedure: [FIG. 5-2] Continuation of FIG. 5. D and E: RT-PCR analysis for splice-neoantigen coding forms (splice-NA forms) in MC38 cells treated with 10 µM Compound 1 or vehicle control (0.1% DMSO) for 6 hours. Actb served as a loading control. * represents p<0.05, ** represents p<0.01, and *** represents p<0.001. F: Splice-neoantigen producing rates calculated from RNA-seq data (n=3 biological replicates) are indicated as the APSI (Compound 1-DMSO). All data are shown as the mean±SEM. All experiments were performed at least twice. Statistical significance was determined using unpaired Student's t-test for (B) and (E).
Then, whether the Compound 1-induced splice-neoantigens are shared across cancer type was examined using murine lung carcinoma LLC, pancreatic ductal adenocarcinoma Pan02, leukemia WEHI3, colorectal adenocarcinoma CT26, lymphoma EG7, and skin melanoma B16 cells.
The effects of Compound 2 on RNA splicing events (splicing alterations) producing the aforementioned six splice-neoantigens in various murine cancer cell lines were investigated through RNA-Seq analysis in the same manner as in FIG. 5-2F, except that Compound 1 was replaced with Compound 2 (FIG. 8).

[6] = system: MC38 cells; assay: IFN-γ signaling and expression of MHC class I components and PD-L1 in MC38 cells; type: cell-based, murine
Excerpt: MHC class I expressed in cancer cells is critical for neoantigen presentation, which is indispensable for CD8^+ T cell-dependent immune surveillance and tumor killing. To investigate whether Compound 1 modulates the neoantigen presentation pathway, first, the effects of Compound 1 on IFN-γ signaling and the expression of MHC class I components, including […] (B2M) and H2-K^b in MC38 cells, were examined because CD8^+ T cell-secreted IFN-γ is a major inducer of MHC class I components. […] In contrast, any changes in the expression of PD-L1 were not detected in host dendritic cells or macrophages. […] However, these alterations were likely not the functional mechanisms through which Compound 1 exerts its antitumor effects (FIGS. 1-2O and 1-2P), as enhanced antitumor effects of Compound 1 were observed when co-administered with αPD-L1.

| Molecule | immunogenicity, IFN-γ ELISpot [2] | tumor-killing responses, individual epitopes [3] | further results |
| --- | --- | --- | --- |
| CC(C)Oc1ccc(-c2c[nH]cc2CN(C)CCN)cc1 [MS-023] | – | – | splicing events and splice-neoantigens in tumor cells [1]: diversely alters splicing events and generates splice-neoantigens |
| KQQELFVLL (listed as Mus musculus) [Qpct1, splice-neoantigen peptide derived from altered splicing of Qpctl] | immunogenic | – | – |
| RNRSHIFPL (listed as Mus musculus) [Nf1, splice-neoantigen peptide derived from altered splicing of Nf1] | immunogenic | significantly triggered the tumor-killing responses | – |
| SLLLLYLQL (listed as Mus musculus) [Rfx7, splice-neoantigen peptide derived from altered splicing of Rfx7] | immunogenic | significantly triggered the tumor-killing responses | – |
| Tpr2: melanoma antigen peptide, tyrosinase-related protein 2 (TRP2) 180-188; control antigen (SVYDFFVWL; UniProt P29812 180-188, looked up, fragment) [reference compound] | – | – | tumor-killing activity of antigen-elicited effector cells ([3]; MC38 cells presenting six splice-neoepitopes, 24 hours co-culture, Annexin V^+/CFSE^+): did not exhibit any response |
| NS(=O)(=O)c1ccc(S(=O)(=O)Nc2cccc3c(Cl)c[nH]c23)cc1 [Indisulam] | – | – | splicing events and splice-neoantigens in tumor cells [1]: diversely alters splicing events and generates splice-neoantigens |
| SQPLPNKIGF (listed as Mus musculus) [Nup153, splice-neoantigen peptide derived from altered splicing of Nup153] | immunogenic | significantly triggered the tumor-killing responses | – |
| MALSNKAYV (listed as Mus musculus) [Kifc1, splice-neoantigen peptide derived from altered splicing of Kifc1] | immunogenic | significantly triggered the tumor-killing responses | – |
| SILGFTMV (listed as Mus musculus) [Acbd4, splice-neoantigen peptide derived from altered splicing of Acbd4] | immunogenic | significantly triggered the tumor-killing responses | – |
| concanavalin A [concanavalin A (ConA), reference compound] | – | – | CD44^+ and CD69^+ marker expressions in CD8^+ and CD4^+ T cells [4]: promoted |
| N=C1NC(=O)/C(=C/c2ccc3c(c2)CCO3)S1 [Compound 2] | – | – | splicing alterations of the Kifc1 gene producing peptides containing MALSNKAYV ([5]; MC38 and B16): markedly observed; splicing alterations of the Rfx7 gene producing peptides containing SLLLLYLQL ([5]; all the cancer cell lines): markedly observed; production of splice-neoantigens ([5]; various murine cancer cell lines, RNA-Seq): increases the production of splice-neoantigens |
| B1 | – | – | phosphorylation of STAT1 and STAT3 and expression of B2M protein [6]: robustly induced |
